What follows are molecules tested against T1, Human TRPC6 (Homo sapiens, UniProt Q9Y210) (assay: Evaluation of TRPC6 channel inhibitory activity (1), FLIPR Calcium 5 Assay Kit, OAG stimulation (Compound Nos. 1-1293)). Conditions: Human TRPC6 stably-expressing cells, OAG 30 μM, FLIPR Calcium 5 Assay Kit; read-out: Inhibitory activity (pIC50 class) (converted).
T1 construct: expressed in transfected cells
T1 sequence (Q9Y210 1-931): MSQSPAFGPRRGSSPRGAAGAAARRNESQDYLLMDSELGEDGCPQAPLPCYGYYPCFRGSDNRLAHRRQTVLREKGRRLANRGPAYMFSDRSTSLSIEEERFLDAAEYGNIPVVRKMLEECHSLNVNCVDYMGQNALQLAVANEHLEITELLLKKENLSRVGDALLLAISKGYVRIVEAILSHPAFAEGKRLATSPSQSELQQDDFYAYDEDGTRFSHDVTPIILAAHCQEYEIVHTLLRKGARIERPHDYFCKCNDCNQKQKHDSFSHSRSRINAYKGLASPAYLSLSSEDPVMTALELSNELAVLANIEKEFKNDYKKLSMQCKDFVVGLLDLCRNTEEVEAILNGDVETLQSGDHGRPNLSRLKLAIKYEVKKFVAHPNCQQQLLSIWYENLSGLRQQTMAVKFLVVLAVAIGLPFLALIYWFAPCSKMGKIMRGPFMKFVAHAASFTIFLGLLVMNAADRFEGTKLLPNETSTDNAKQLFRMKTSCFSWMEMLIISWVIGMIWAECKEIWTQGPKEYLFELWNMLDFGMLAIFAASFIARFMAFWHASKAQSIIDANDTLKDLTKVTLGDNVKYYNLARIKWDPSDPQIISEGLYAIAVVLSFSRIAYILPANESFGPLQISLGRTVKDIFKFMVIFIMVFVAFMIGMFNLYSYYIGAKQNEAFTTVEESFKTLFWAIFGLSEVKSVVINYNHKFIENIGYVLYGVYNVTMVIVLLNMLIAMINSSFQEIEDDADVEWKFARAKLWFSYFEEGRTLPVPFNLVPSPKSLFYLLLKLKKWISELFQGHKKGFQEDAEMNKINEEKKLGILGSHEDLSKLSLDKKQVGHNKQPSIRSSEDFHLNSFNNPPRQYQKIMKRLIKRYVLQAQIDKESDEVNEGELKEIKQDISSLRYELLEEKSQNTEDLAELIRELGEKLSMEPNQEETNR
Format: cell-based
Method in brief: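 Readout is pIC50 from four-parameter logistic fitting of inhibition of the OAG-evoked (30 μM final) fluorescence calcium signal. Human TRPC6 stable cells are dye-loaded with probenecid, and compound is applied 20 min ahead of agonist.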
`Cn1nc(C2CC2)cc1Oc1cc(C#N)ccc1-c1ncc(CN)o1` [compound 584, 4-[5-(aminomethyl)-1,3-oxazol-2-yl]-3-(5-cyclopropyl-2-methylpyrazol-3-yl)oxybenzonitrile] showed an IC50 of over 1 µM. In the case of `N#Cc1ccc(-c2ccc(CCN)cn2)c(Cn2cnc(-c3ccccc3Cl)c2)c1` [compound 1144, 4-[5-(2-aminoethyl)pyridin-2-yl]-3-[[4-(2-chlorophenyl)imidazol-1-yl]methyl]benzonitrile], the IC50 is reported as under 0.01 µM. `C=C(c1cc(N2CCOCC2)nc(C)n1)c1cc(C#N)ccc1-c1ccc(CCN)cc1` [compound 1228, 4-[4-(2-aminoethyl)phenyl]-3-[1-(2-methyl-6-morpholin-4-ylpyrimidin-4-yl)ethenyl]benzonitrile] was tested, and the IC50 was 0.01 to 1 µM. With `Cc1nc(Oc2cc(C#N)ccc2-c2ncc(CN)cn2)cc(N(C)C(C)C)n1` [compound 792, 4-[5-(aminomethyl)pyrimidin-2-yl]-3-[2-methyl-6-[methyl(propan-2-yl)amino]pyrimidin-4-yl]oxybenzonitrile] the IC50 was 0.01 to 1 µM. Work on `Cc1cc(Oc2cc(C#N)ccc2-c2ncc(OC3CNC3)cn2)cc(N2CCOCC2)n1` [compound 563, 4-[5-(azetidin-3-yloxy)pyrimidin-2-yl]-3-(2-methyl-6-morpholin-4 ylpyridin-4-yl)oxybenzonitrile] yielded an IC50 of over 1 µM. `Cn1nc(-c2ccccc2)cc1Oc1cc(C#N)ccc1-c1cnc(CCN)nc1` [compound 346, 4-[2-(2-aminoethyl)pyrimidin-5-yl]-3 (2-methyl-5-phenylpyrazol-3-yl)oxybenzonitrile] was tested, and the IC50 was under 0.01 µM. In the case of `Cn1nc(-c2ccccc2)cc1Oc1cc(C#N)ccc1-c1ccc(C(N)CO)cn1` (stereo not drawn) [compound 469, 4-[5-(1-amino-2-hydroxyethyl)pyridin-2-yl]-3-(2-methyl-5-phenylpyrazol-3-yl)oxybenzonitrile], the IC50 is reported as under 0.01 µM. In the case of `Cn1nc(-c2ccccn2)cc1Oc1cc(F)ccc1-c1ncc(CCN)cn1` [compound 977, 2-[2-[4-fluoro-2-(2-methyl-5-pyridin-2-ylpyrazol-3-yl)oxyphenyl]pyrimidin-5-yl]ethanamine], the IC50 is reported as under 0.01 µM. `Cn1nc(C2CC2)cc1Oc1cc(C#N)ccc1-c1cnc(NCCN)nc1` [compound 431, 4-[2-(2-aminoethylamino)pyrimidin-5-yl]-3-(5-cyclopropyl-2-methylpyrazol-3-yl)oxybenzonitrile] gave an IC50 of 0.01 to 1 µM. Work on `Cc1ncsc1-c1cc(Oc2cc(C#N)ccc2-c2ncc(CN)cn2)n(C)n1` [compound 958, 4-[5-(aminomethyl)pyrimidin-2-yl]-3-[2-methyl-5-(4-methyl-1,3-thiazol-5-y)pyrazol-3-yl]oxybenzonitrile] yielded an IC50 of under 0.01 µM. Work on `N#Cc1ccc(-c2ncc(CN)cn2)c(C(=O)c2nnc(N3CCOCC3)s2)c1` [compound 1095, 4-[5-(aminomethyl)pyrimidin-2-yl]-3-(5-morpholin-4-yl-1,3,4-thiadiazole-2-carbonyl)benzonitrile] yielded an IC50 of over 1 µM. `Cc1nc(Oc2cc(C#N)ccc2-c2ccc(CCN)nc2)cc(-c2cccc(F)c2)n1` [Compound 167, 4-[6-(2-aminoethyl)pyridin-3-yl]-3-[6-(3-fluorophenyl)-2-methylpyrimidin-4-yl]oxybenzonitrile] was tested, and the IC50 was 0.01 to 1 µM. For `N#Cc1ccc(-c2ccc(CCN)cc2)c(Oc2cnnc(-c3ccccc3OC(F)(F)F)c2)c1` [Compound 117, 4-[4-(2-aminoethyl)phenyl]-3-[6-[2-(trifluoromethoxy)phenyl]pyridazin-4-yl]oxybenzonitrile], the IC50 was 0.01 to 1 µM. With `Cc1nc(Oc2cc(C#N)ccc2-n2cc([C@@H](O)CN)cn2)cc(N2CC(F)(F)C2)n1` [Compound 236, 4-[4-[(1R)-2-amino-1-hydroxyethyl]pyrazol-1-yl]-3-[6-(3,3-difluoroazetidin-1-yl)-2-methylpyrimidin-4-yl]oxybenzonitrile] the IC50 was 0.01 to 1 µM. `Cn1nc(-c2cccc(F)c2)cc1Oc1cc(C#N)ccc1-c1ccc(CCN)cn1` [Compound 199, 4-[5-(2-aminoethyl)pyridin-2-yl]-3-[5-(3-fluorophenyl)-2-methylpyrazol-3-yl]oxybenzonitrile] was tested, and the IC50 was under 0.01 µM.

From patent US20230167073A1 (Teijin Pharma Limited, priority 2020, published 2023)
